Each structure is given as a SMILES string. A value given as a limit tells only on which side of the number the result lay.

One test deals with PI3K (Homo sapiens, UniProt P42336). The test is described as follows: Fluorescence polarization assay for PI3K.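 Also: PI3K kinase reaction on PIP2 with ATP, 30-60 min, product sensed by GST-GRP with red probe in fluorescence polarization (mP), controls without enzyme and at zero time.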 The test is classed as biochemical. Conditions: PI3Kα; read-out: PI3Kα IC50. (In general: Polarisation of emitted light reports the rotation of a fluorescent probe.)
PI3K, sequence (P42336 whole entry): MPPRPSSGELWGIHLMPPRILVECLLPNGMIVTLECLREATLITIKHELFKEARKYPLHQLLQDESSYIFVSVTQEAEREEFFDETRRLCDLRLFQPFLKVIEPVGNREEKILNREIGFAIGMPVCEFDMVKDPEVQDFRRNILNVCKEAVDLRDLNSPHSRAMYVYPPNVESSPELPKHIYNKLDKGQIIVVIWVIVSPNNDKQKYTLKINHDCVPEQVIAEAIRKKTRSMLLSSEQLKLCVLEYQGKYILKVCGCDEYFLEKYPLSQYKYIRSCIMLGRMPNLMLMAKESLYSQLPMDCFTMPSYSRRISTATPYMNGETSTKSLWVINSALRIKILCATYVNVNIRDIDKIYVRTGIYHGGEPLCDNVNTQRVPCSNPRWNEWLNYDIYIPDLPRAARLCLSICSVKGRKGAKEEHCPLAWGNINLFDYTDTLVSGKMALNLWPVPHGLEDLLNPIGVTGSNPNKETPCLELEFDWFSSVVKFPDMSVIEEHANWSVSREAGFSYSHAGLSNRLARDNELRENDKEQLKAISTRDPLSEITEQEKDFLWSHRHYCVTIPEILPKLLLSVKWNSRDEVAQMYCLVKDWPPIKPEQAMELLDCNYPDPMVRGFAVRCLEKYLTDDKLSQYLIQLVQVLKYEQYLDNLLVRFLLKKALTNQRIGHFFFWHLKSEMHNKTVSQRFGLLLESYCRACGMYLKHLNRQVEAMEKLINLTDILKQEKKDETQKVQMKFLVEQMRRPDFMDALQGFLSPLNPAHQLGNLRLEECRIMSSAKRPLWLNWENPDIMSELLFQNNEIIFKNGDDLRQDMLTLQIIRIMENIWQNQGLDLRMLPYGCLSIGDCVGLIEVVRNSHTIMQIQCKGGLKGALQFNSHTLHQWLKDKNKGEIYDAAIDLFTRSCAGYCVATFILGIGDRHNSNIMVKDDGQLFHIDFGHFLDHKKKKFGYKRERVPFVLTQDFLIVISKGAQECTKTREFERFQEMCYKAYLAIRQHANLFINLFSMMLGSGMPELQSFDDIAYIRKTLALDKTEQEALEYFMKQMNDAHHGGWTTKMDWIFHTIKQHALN
PI3K, sequence (P27986 whole entry partner): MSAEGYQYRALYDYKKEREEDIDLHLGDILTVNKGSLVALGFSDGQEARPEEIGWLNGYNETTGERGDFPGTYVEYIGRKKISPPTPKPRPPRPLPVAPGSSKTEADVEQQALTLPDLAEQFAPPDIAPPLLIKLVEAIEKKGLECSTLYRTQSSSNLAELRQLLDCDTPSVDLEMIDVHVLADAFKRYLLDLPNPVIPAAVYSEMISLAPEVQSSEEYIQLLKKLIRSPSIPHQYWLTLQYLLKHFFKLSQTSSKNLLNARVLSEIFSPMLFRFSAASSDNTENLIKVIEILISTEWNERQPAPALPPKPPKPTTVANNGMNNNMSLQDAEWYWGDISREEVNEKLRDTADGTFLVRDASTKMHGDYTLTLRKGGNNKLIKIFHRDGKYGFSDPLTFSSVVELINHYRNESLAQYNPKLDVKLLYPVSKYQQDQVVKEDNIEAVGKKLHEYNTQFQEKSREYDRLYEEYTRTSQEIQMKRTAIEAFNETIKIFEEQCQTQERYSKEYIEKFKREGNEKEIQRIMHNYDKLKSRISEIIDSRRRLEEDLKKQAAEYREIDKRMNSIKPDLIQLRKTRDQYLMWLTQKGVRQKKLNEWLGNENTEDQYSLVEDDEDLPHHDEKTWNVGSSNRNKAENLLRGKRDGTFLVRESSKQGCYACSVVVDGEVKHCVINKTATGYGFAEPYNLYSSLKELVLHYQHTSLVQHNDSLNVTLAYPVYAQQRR
For the next test, the system named is prostate line LNCap. The test is described as follows: In vitro cell culture growth assay (MTS), LNCap.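 Also: viable cell density read by absorbance at 490 nm, growth expressed as percent of vehicle-treated cells on the same plate.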 The test is classed as cell-based, human. Conditions: LNCap cells, three days after drug treatment.
The next test relates to breast line MDA468. The test is described as follows: In vitro cell culture growth assay (MTS), MDA468. The test is classed as cell-based, human. Conditions: MDA468 cells, three days after drug treatment. In outline:
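Steps: plate cells; add inhibitors the next day; incubate 3 days; add MTS dye, which viable cells convert metabolically; measure absorbance at 490 nm; calculate percent of control growth relative to vehicle-treated cells in the same plate.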

As for `CN(C)CC(=O)Nc1ccc(-c2nc(N3CCOCC3)c3cn[nH]c3n2)cc1` [Compound 527, N^2,N^2-dimethyl-N-[4-(4-morpholin-4-yl-1H-pyrazolo[3,4-d]pyrimidin-6-yl)phenyl]glycinamide], the IC50 at PI3K was found to be 2270 nM; in the test with prostate line LNCap (Homo sapiens, LNCaP, 72 h), 7000 nM; in the test on breast line MDA468 (Homo sapiens, 72 h) it was 18000 nM.

As to `NNC(=O)Nc1ccc(-c2nc(N3CCOCC3)c3cnn(C4CCN(Cc5ccccc5)CC4)c3n2)cc1` [Example 309, N-{4-[1-(1-benzylpiperidin-4-yl)-4-morpholin-4-yl-1H-pyrazolo[3,4-d]pyrimidin-6-yl]phenyl}hydrazinecarboxamide], the IC50 on PI3K is 155 nM; in the test with prostate line LNCap (Homo sapiens, LNCaP, 72 h), 900 nM; with breast line MDA468 (Homo sapiens, 72 h), 7500 nM.

Take `CC(C)(C)COC(=O)N1CCC(n2ncc3c(N4CCOCC4)nc(-c4ccc(NC(=O)Nc5cccnc5)cc4)nc32)CC1` [Compound 877, 2,2-dimethylpropyl 4-(4-morpholin-4-yl-6-{4-[(pyridin-3-ylcarbamoyl)amino]phenyl}-1H-pyrazolo[3,4-d]pyrimidin-1-yl)piperidine-1-carboxylate]: the concentration for half-maximal inhibition (IC50) at PI3K worked out at 32 nM; with prostate line LNCap (Homo sapiens, LNCaP, 72 h) it was 120 nM; in the test on breast line MDA468 (Homo sapiens, 72 h) it was 400 nM.

For the compound `COC(=O)N1CCC(n2ncc3c(N4CCOC(C)C4)nc(-c4ccc(NC(=O)Nc5ccccn5)cc4)nc32)CC1` (stereo not drawn) [Compound 847, methyl 4-[4-(2-methylmorpholin-4-yl)-6-{4-[(pyridin-2-ylcarbamoyl)amino]phenyl}-1H-pyrazolo[3,4-d]pyrimidin-1-yl]piperidine-1-carboxylate], the IC50 at PI3K turned out to be 8320 nM; in the test on prostate line LNCap (Homo sapiens, LNCaP, 72 h), 13000 nM; with breast line MDA468 (Homo sapiens, 72 h), 15000 nM.

For the compound `N#CNC(=O)Nc1ccc(-c2nc(N3CCOCC3)c3cnn(C4CCN(Cc5cccnc5)CC4)c3n2)cc1` [Example 409, N′-cyano-N-(4-{4-morpholin-4-yl-1-[1-(pyridin-3-ylmethyl)piperidin-4-yl]-1H-pyrazolo[3,4-d]pyrimidin-6-yl}phenyl)carbamimidic acid], the IC50 was 363 nM on PI3K; 800 nM in the test with prostate line LNCap (Homo sapiens, LNCaP, 72 h); 2500 nM in the test on breast line MDA468 (Homo sapiens, 72 h).

Take `O=C(Nc1ccncc1)Nc1ccc(-c2nc(N3CCOCC3)c3cnn(C4CCN(C(=O)c5cccnc5)CC4)c3n2)cc1` [Compound 591, 1-(4-{4-morpholin-4-yl-1-[1-(pyridin-3-ylcarbonyl)piperidin-4-yl]-1H-pyrazolo[3,4-d]pyrimidin-6-yl}phenyl)-3-pyridin-4-ylurea]: the IC50 is 15 nM on PI3K; 27 nM in the test on prostate line LNCap (Homo sapiens, LNCaP, 72 h); less than 27 nM in the test with breast line MDA468 (Homo sapiens, 72 h).

As to `O=C1Cc2cc(-c3nc(N4CCOCC4)c4cnn(-c5ccccc5)c4n3)ccc2N1` [Compound 677, 5-(4-morpholin-4-yl-1-phenyl-1H-pyrazolo[3,4-d]pyrimidin-6-yl)-1,3-dihydro-2H-indol-2-one], the IC50 at PI3K was 1030 nM; in the test on prostate line LNCap, greater than 60000 nM; in the test on breast line MDA468, greater than 60000 nM.

As for `O=C(NCCF)Nc1ccc(-c2nc(N3CCOCC3)c3cnn(C4CCN(Cc5cccnc5)CC4)c3n2)cc1F` [Compound 619, 1-(2-fluoroethyl)-3-(2-fluoro-4-{4-morpholin-4-yl-1-[1-(pyridin-3-ylmethyl)piperidin-4-yl]-1H-pyrazolo[3,4-d]pyrimidin-6-yl}phenyl)urea], the IC50 on PI3K stood at 619 nM; in the test with prostate line LNCap (Homo sapiens, LNCaP, 72 h), 140 nM; in the test on breast line MDA468 (Homo sapiens, 72 h), 1300 nM.

Consider `CCCOC(=O)N1CCC(n2ncc3c(N4CCOCC4)nc(-c4ccc(NC(=O)Nc5ccccc5)cc4)nc32)CC1` [Compound 849, propyl 4-(4-morpholin-4-yl-6-{4-[(phenylcarbamoyl)amino]phenyl}-1H-pyrazolo[3,4-d]pyrimidin-1-yl)piperidine-1-carboxylate], for which the IC50 was determined as 24 nM at PI3K; 95 nM in the test on prostate line LNCap (Homo sapiens, LNCaP, 72 h); 300 nM with breast line MDA468 (Homo sapiens, 72 h).

Take `c1ccc(CN2CCC(n3ncc4c(N5CCOCC5)nc(-c5cnc6ccccc6c5)nc43)CC2)cc1` [Compound 230, 3-[1-(1-benzylpiperidin-4-yl)-4-morpholin-4-yl-1H-pyrazolo[3,4-d]pyrimidin-6-yl]quinoline]: the IC50 at PI3K is 6000 nM; in the test on prostate line LNCap (Homo sapiens, LNCaP, 72 h), 60000 nM; in the test on breast line MDA468 (Homo sapiens, 72 h) it was 22000 nM.

Turning to `CNC(=O)Nc1ccc(-c2nc(N3CCOCC3)c3cnn(C4CCN(C(=O)c5ccc(F)nc5)CC4)c3n2)cc1` [Example 421, 1-[4-(1-{1-[(6-fluoropyridin-3-yl)carbonyl]piperidin-4-yl}-4-morpholin-4-yl-1H-pyrazolo[3,4-d]pyrimidin-6-yl)phenyl]-3-methylurea], the IC50 on PI3K stood at 100 nM; in the test on prostate line LNCap (Homo sapiens, LNCaP, 72 h) it was 250 nM; in the test on breast line MDA468 (Homo sapiens, 72 h) it was 300 nM.

Regarding `CNC(=O)Nc1ccc(-c2nc(N3CCOCC3)c3cnn(C4CCC(=O)CC4)c3n2)cc1` [Compound 567, 1-methyl-3-{4-[4-morpholin-4-yl-1-(4-oxocyclohexyl)-1H-pyrazolo[3,4-d]pyrimidin-6-yl]phenyl}urea], the IC50 on PI3K turned out to be 56 nM; in the test with prostate line LNCap (Homo sapiens, LNCaP, 72 h), 27 nM; in the test on breast line MDA468 (Homo sapiens, 72 h), 180 nM.

On to `O=C(NCCF)Nc1ccc(-c2nc(N3CCOCC3)c3cnn(C4CCN(CCCCO)CC4)c3n2)cc1` [Compound 747, 1-(2-fluoroethyl)-3-(4-{1-[1-(4-hydroxybutyl)piperidin-4-yl]-4-morpholin-4-yl-1H-pyrazolo[3,4-d]pyrimidin-6-yl}phenyl)urea], for which the IC50 on PI3K stood at 782 nM; in the test with prostate line LNCap (Homo sapiens, LNCaP, 72 h) it was 3300 nM; in the test on breast line MDA468 (Homo sapiens, 72 h), 6660 nM.

As for `CN1CCC(C(=O)Nc2ccc(-c3nc(N4CCOCC4)c4cn[nH]c4n3)cc2)CC1` [Compound 530, 1-methyl-N-[4-(4-morpholin-4-yl-1H-pyrazolo[3,4-d]pyrimidin-6-yl)phenyl]piperidine-4-carboxamide], the half-inhibitory concentration (IC50) on PI3K came to 885 nM; in the test on prostate line LNCap (Homo sapiens, LNCaP, 72 h), 5300 nM; in the test on breast line MDA468 (Homo sapiens, 72 h) it was 22000 nM.

Consider `O=C(O)CCC(=O)Nc1ccc(-c2nc(N3CCOCC3)c3cnn(-c4ccccc4)c3n2)cc1` [Compound 109], for which the 50% inhibitory concentration (IC50) stood at 248 nM on PI3K; 45000 nM with prostate line LNCap (Homo sapiens, LNCaP, 72 h); 30000 nM with breast line MDA468 (Homo sapiens, 72 h).

In the case of `Oc1cccc(-c2nc(N3CCOCC3)c3cnn(C4CCN(CC5CCCCC5)CC4)c3n2)c1` [Compound 17], the IC50 came to 107 nM at PI3K; 310 nM in the test with prostate line LNCap (Homo sapiens, LNCaP, 72 h); 2000 nM in the test on breast line MDA468 (Homo sapiens, 72 h).

Turning to `O=C(NCCO)Nc1ccc(-c2nc(N3CCOCC3)c3cnn(C4CCN(C(=O)c5cccnc5)CC4)c3n2)cc1` [Compound 549, 1-(2-hydroxyethyl)-3-(4-{4-morpholin-4-yl-1-[1-(pyridin-3-ylcarbonyl)piperidin-4-yl]-1H-pyrazolo[3,4-d]pyrimidin-6-yl}phenyl)urea], the half-inhibitory concentration (IC50) on PI3K is 220 nM; in the test on prostate line LNCap (Homo sapiens, LNCaP, 72 h) it was 7500 nM; in the test on breast line MDA468 (Homo sapiens, 72 h) it was 9000 nM.

In the case of `CCCOC(=O)N1CCC(n2ncc3c(N4CCOCC4)nc(-c4ccc(NC(=O)NC)cc4)nc32)CC1` [Compound 751, propyl 4-(6-{4-[(methylcarbamoyl)amino]phenyl}-4-morpholin-4-yl-1H-pyrazolo[3,4-d]pyrimidin-1-yl)piperidine-1-carboxylate], the IC50 came out at 106 nM at PI3K; 34 nM with prostate line LNCap (Homo sapiens, LNCaP, 72 h); 110 nM in the test on breast line MDA468 (Homo sapiens, 72 h).

In the case of `CCNC(=O)Nc1ccc(-c2nc(N3CCOCC3)c3cnn(C4CCN(CC(F)(F)F)CC4)c3n2)cc1` [Compound 782, 1-ethyl-3-(4-{4-morpholin-4-yl-1-[1-(2,2,2-trifluoroethyl)piperidin-4-yl]-1H-pyrazolo[3,4-d]pyrimidin-6-yl}phenyl)urea], the IC50 was found to be 766 nM at PI3K; 60 nM with prostate line LNCap (Homo sapiens, LNCaP, 72 h); 300 nM in the test with breast line MDA468 (Homo sapiens, 72 h).

`NC(=O)CN1CCC(n2ncc3c(N4CCOCC4)nc(-c4ccc5[nH]ccc5c4)nc32)CC1` [Compound 495, 2-{4-[6-(1H-indol-5-yl)-4-morpholin-4-yl-1H-pyrazolo[3,4-d]pyrimidin-1-yl]piperidin-1-yl}acetamide]: the 50% inhibitory concentration (IC50) on PI3K was determined as 2660 nM; with prostate line LNCap (Homo sapiens, LNCaP, 72 h) it was 800 nM; with breast line MDA468 (Homo sapiens, 72 h), 2800 nM.

Consider `Oc1cccc(-c2nc(N3CCOCC3)c3cnn(C4CCNCC4)c3n2)c1` [Compound 9], for which the IC50 on PI3K was 36 nM; in the test on prostate line LNCap (Homo sapiens, LNCaP, 72 h), 370 nM; in the test on breast line MDA468 (Homo sapiens, 72 h), 2200 nM.

In the case of `O=CN1CCC(n2ncc3c(N4CCOCC4)nc(-c4ccc5[nH]ccc5c4)nc32)CC1` [Compound 518, 4-[6-(1H-indol-5-yl)-4-morpholin-4-yl-1H-pyrazolo[3,4-d]pyrimidin-1-yl]piperidine-1-carbaldehyde], the IC50 at PI3K was 2800 nM; in the test on prostate line LNCap (Homo sapiens, LNCaP, 72 h) it was 1000 nM; in the test on breast line MDA468 (Homo sapiens, 72 h) it was 3000 nM.

For the compound `COC(=NC#N)Nc1ccc(-c2nc(N3CCOCC3)c3cnn(C4CCN(Cc5cccnc5)CC4)c3n2)cc1` [Example 410, methyl N′-cyano-N-(4-{4-morpholin-4-yl-1-[1-(pyridin-3-ylmethyl)piperidin-4-yl]-1H-pyrazolo[3,4-d]pyrimidin-6-yl}phenyl)imidocarbamate], the IC50 was determined as 593 nM at PI3K; 2200 nM in the test with prostate line LNCap (Homo sapiens, LNCaP, 72 h); 1300 nM in the test on breast line MDA468 (Homo sapiens, 72 h).

`OCCN1CCC(n2ncc3c(N4CCOCC4)nc(-c4ccc5[nH]ccc5c4)nc32)CC1` [Compound 246, 2-{4-[6-(1H-indol-5-yl)-4-morpholin-4-yl-1H-pyrazolo[3,4-d]pyrimidin-1-yl]piperidin-1-yl}ethanol]: the IC50 at PI3K worked out at 3990 nM; in the test on prostate line LNCap (Homo sapiens, LNCaP, 72 h), 1800 nM; in the test with breast line MDA468 (Homo sapiens, 72 h) it was 3000 nM.

Turning to `CNC(=O)Nc1cccc(-c2nc(N3CCOCC3)c3cnn(C4CCN(Cc5ccccc5)CC4)c3n2)c1` [Compound 228, N-{3-[1-(1-benzylpiperidin-4-yl)-4-morpholin-4-yl-1H-pyrazolo[3,4-d]pyrimidin-6-yl]phenyl}-N′-methylurea], the IC50 on PI3K was 1920 nM; with prostate line LNCap (Homo sapiens, LNCaP, 72 h), 5800 nM; in the test on breast line MDA468 (Homo sapiens, 72 h), 6800 nM.

As usually defined, the IC50 is the point on the concentration scale where inhibition reaches its midpoint.
